Legend:
hemoglobin (Hb) = hemoglobin (Hb) (Homo sapiens, UniProt P68871+P69905); assay: Hydrogen peroxide scavenging ability with hemoglobin (Amplex Red H2O2 assay); assay type: biochemical; settings: 10 μM H2O2, 80 μg/ml hemoglobin, 37° C. about 30 minutes
Procedure: Amplex Red is a means which turns into a fluorescent substance called resorufin when horse radish peroxidase (HRP) and H2O2 exist together and allows measurement of changes in H2O2, that is, H2O2 assay. […] The experiment was performed by adding hemoglobin instead of HRP to the H2O2 assay by Amplex Red (FIG. 1). The final concentration of each substance was 10 μM of H2O2 and 80 μg/ml of hemoglobin, and the aminoaromatic compound of the present invention was treated by concentration. After the reaction at 37° C. for about 30 minutes as such, fluorescence (excitation: 540 nm, emission: 580 nm) was measured by a microplate reader. At this time, it can be said that fluorescence is proportional to the amount of H2O2. Normalization was performed for each concentration based on a fluorescence value without a drug, and a value at which the fluorescence value was 50%, that is, a half maximal effective concentration (EC50) was determined by a program through statistical processing. The results are shown in the following Table 2, and AAD-2004 was used as a control group.

[1] = Blood brain barrier (BBB) permeability analysis (PAMPA); assay type: in vitro ADME
Procedure: Based on J Med Chem. 2001 Mar. 15; 44 (6):923-30., an artificial blood brain barrier (BBB) was produced by a parallel artificial membrane permeability assay (PAMPA), and the permeability of the drug was assessed.

[2] = system: primary cultured astrocytes; assay: In vitro H2O2 decomposition in primary cultured astrocytes (H2DCFDA-AM); assay type: cell-based, C57BL/6 mice
Procedure: (§1) Primary cortical astrocytes were prepared from C57BL/6 mice from the day of birth to day 3 since birth. The cerebral cortex was dissected without adherent meninges, minced, and dissociated into a single cell suspension by trituration. The cells were grown in Dulbecco's modified Eagle's medium (DMEM) (Invitrogen) supplemented with 25 mM glucose, 10% heat-inactivated horse serum, 10% heat-inactivated fetal calf serum (FCS), 2 mM glutamine, and 1,000 U/ml of penicillin-streptomycin. Culture was maintained at 37° C. in a humidified 5% CO2 incubator. On day 3 of the culture, cells were vigorously washed by repeated pipetting, and the medium was exchanged to remove debris and other floating cell types.
In order to verify that there was a H2O2 scavenging effect in a cell-level experiment, a cell-permeant 2′,7′-dichlorodihydrofluorescein diacetate (H2DCFDA-AM) drug which is a hydrogen peroxide probe in astrocytes was used to measure the amount of H2O2 in the cells with fluorescence (A and B of FIG. 2). […]
An experiment timeline for investigating the H2O2 decomposition effect by the aminoaromatic compound of the present invention, KDS12008 (Example 1) (10 μM) and sodium pyruvate (10 mM) for naturally occurring H2O2 in the cultured astrocytes is shown in A of FIG. 2. […] H2DCFDA-AM was a sample which reacted with H2O2 to produce green fluorescence, and was used at 10 μM for measurement. […]

cultured astrocytes = assay: Cell viability (QuantiMax reagent); assay type: cell-based, C57BL/6 mice
Procedure: as §1
In addition, in order to investigate cell viability, the experiment was performed using a QuantiMax reagent. The cell viability was confirmed by a luminescence degree of QuantiMax, and the results are shown in B of FIG. 3.

APP/PS1 mouse = assay: Passive avoidance test (PAT) I; assay type: in vivo; settings: 30 mg/kg/day IP for 16 days
Procedure: A passive avoidance test is an experiment to check the memory of animals, in which a weak electric stimulation was given in a dark room and it was assessed whether the animal remembered the electrical stimulation.
Since mice preferred a dark room, they have a tendency to move quickly to a dark room when they are in a bright room. […] A time to move from a bright room to a dark room (latency to dark room, sec) was measured, thereby measuring memory of a combination of the electrical stimulation and the dark room. An APP/PS1 mouse which is used as an Alzheimer's animal model was used to perform the passive avoidance test (FIG. 4). A wild type (WT) mouse was used as a control group.
On the first day of PAT, as an acquisition session, the mouse was allowed to stay in a bright room, and after a certain time, a dark room was opened and a time for the mouse to enter the dark room was measured. When the mouse entered the dark room, an electrical shock (0.5 mA, 2 sec) was given by a foothold. On the second day, as a retrieval session, the mouse was placed in a bright room, and a time for the mouse to enter a dark room was measured. At this time, the door of the dark room was opened first.
The APP/PS1 dementia mouse was intraperitoneally injected with the aminoaromatic compound of the present invention (KDS12008 (Example 1), KDS12017 (Example 16), or KDS12025 (Example 21)) (KDS12008 (Example 1) 30 mg/kg/day (30 mpk); KDS12017 (Example 16) 30 mg/kg/day (30 mpk); KDS12025 (Example 21) 3 mg/kg/day (3 mpk)) for 16 days (intraperitoneal injection, IP).

[3] = system: APP/PS1 mouse hippocampus astrocytes (GFAP); assay: Immunohistochemistry (IHC) I of brain tissue, GFAP; assay type: in vivo; settings: 30 mg/kg/day IP for 16 days
Procedure: The brain of the Alzheimer's animal model of Experimental Example 3 was fixed with formaldehyde, and sliced into a small thickness. The amount of cells or specific protein in the sliced brain was measured with an image by histochemical staining. In the present experimental example, an antibody labeling an astrocyte was used to measure a change in astrocytes related to dementia. The results are illustrated in FIG. 5. That is, in the present experimental example, the hippocampus of the brain was histologically stained and a change in astrocytes around dementia substance amyloid beta was observed. Glial fibrillary acidic protein (GFAP) refers to astrocytes staining, 4′,6-diamidino-2-phenylindole (DAPI) marked cell nuclei and amyloid beta substance.

WT mouse (C57BL/6 mouse) = assay: Single toxicity assessment (lethal dose 50, LD50); assay type: in vivo; settings: for animals died: C57BL/6, mouse, 300 mg/kg; for animals died / toxicity (death of animals): in vivo, ip; for toxicity (death of animals): mouse, 1000 mg/kg; for lethal toxicity: single dose 100 mg/kg IP, C57BL/6 mouse
Procedure: The aminoaromatic compound of the present invention, KDS12008 (Example 1), KDS12017 (Example 16), or KDS12025 (Example 21) was intraperitoneally injected at a single dose of 100, 300, and 1000 mg/kg, respectively, into a WT mouse at about 8 weeks of age (C57BL/6 mouse), and it was assessed whether the animal was dead.

hemoglobin (Hb), sequence (P69905 2-142 limits assumed): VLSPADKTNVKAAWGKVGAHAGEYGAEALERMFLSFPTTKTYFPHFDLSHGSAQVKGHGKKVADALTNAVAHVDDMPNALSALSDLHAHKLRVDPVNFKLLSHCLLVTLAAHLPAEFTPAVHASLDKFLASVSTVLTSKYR
hemoglobin (Hb), sequence (P68871 2-147 limits assumed): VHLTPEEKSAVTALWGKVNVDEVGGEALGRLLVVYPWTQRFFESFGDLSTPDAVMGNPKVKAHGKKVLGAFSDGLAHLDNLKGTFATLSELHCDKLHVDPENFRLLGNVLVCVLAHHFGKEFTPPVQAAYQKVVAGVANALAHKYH

## O=C(O)c1cc(NCCc2ccc(C(F)(F)F)cc2)ccc1O [AAD-2004, reference compound]
Hemoglobin (Hb)
  EC50: 990 nM
[1]
  Papp at 50 μM: 3.56 ×10⁻⁶ cm/s

## CN(C)c1ccc(NCCc2ccc(C(F)(F)F)cc2)cc1 [Example 1]
Hemoglobin (Hb)
  EC50: 540 nM
[2]; 10 μM, 2 days, cultured astrocytes
  H2O2 decomposition effect on naturally occurring H2O2: statistically significant decrease in H2O2
[2]; astrocytes treated at various concentrations
  amount of H2O2 in cells (fluorescence intensity): H2O2 was decreased with the concentration
Cultured astrocytes; 100 μM
  cell viability: no effect on cell viability
APP/PS1 mouse
  latency to dark room (impaired memory): significantly recovered
[3]
  GFAP (astrocytes) in hippocampus: decreased GFAP
WT mouse (C57BL/6 mouse)
  animals died: about 50%
  toxicity (death of animals): showed toxicity
  lethal toxicity: lethal toxicity was not shown

## CN(C)c1ccc(NCCc2cccc(C(F)(F)F)c2)cc1 [Example 3]
Hemoglobin (Hb)
  EC50: 560 nM

## CN(C)c1ccc(NCCc2ccccc2Cl)cc1 [Example 4]
Hemoglobin (Hb)
  EC50: 580 nM

## CN(C)c1ccc(NCCc2cccc(Cl)c2)cc1 [Example 5]
Hemoglobin (Hb)
  EC50: 430 nM

## CN(C)c1ccc(NCCc2ccc(Cl)cc2)cc1 [Example 6]
Hemoglobin (Hb)
  EC50: 270 nM

## COc1ccc(CCNc2ccc(N(C)C)cc2)cc1 [Example 7]
Hemoglobin (Hb)
  EC50: 460 nM

## CN(C)c1ccc(NCCc2ccc(F)cc2)cc1 [Example 8]
Hemoglobin (Hb)
  EC50: 410 nM

## Nc1ccc(NCCc2ccc(C(F)(F)F)cc2)cc1 [Example 9]
Hemoglobin (Hb)
  EC50: 300 nM

## CN(C)c1ccc(NCCCc2ccc(C(F)(F)F)cc2)cc1 [Example 10]
Hemoglobin (Hb); (DMSO)
  EC50: 300 nM

## Nc1ccc(NCCCc2ccc(C(F)(F)F)cc2)cc1 [Example 11]
Hemoglobin (Hb); (DMSO)
  EC50: 540 nM

## Nc1ccc(NCCc2ccccc2C(F)(F)F)cc1 [Example 12]
Hemoglobin (Hb)
  EC50: 830 nM

## Nc1ccc(NCCc2cccc(C(F)(F)F)c2)cc1 [Example 13]
Hemoglobin (Hb)
  EC50: 720 nM

## Nc1ccc(NCCc2cccc(F)c2)cc1 [Example 14]
Hemoglobin (Hb)
  EC50: 780 nM

## Nc1ccc(NCCc2ccccc2Cl)cc1 [Example 15]
Hemoglobin (Hb)
  EC50: 590 nM

## CNc1ccc(NCCc2ccc(C(F)(F)F)cc2)cc1 [Example 16]
Hemoglobin (Hb)
  EC50: 190 nM
APP/PS1 mouse
  latency to dark room (impaired memory): significantly recovered
[3]
  GFAP (astrocytes) in hippocampus: decreased GFAP
WT mouse (C57BL/6 mouse)
  animals died: about 50%
  toxicity (death of animals): showed toxicity
  lethal toxicity: lethal toxicity was not shown

## CNc1ccc(NCCCc2ccc(C(F)(F)F)cc2)cc1 [Example 17]
Hemoglobin (Hb); (DMSO)
  EC50: 300 nM

## CNc1ccc(NCCc2ccccc2C(F)(F)F)cc1 [Example 18]
Hemoglobin (Hb)
  EC50: 210 nM

## CNc1ccc(NCCc2cccc(C(F)(F)F)c2)cc1 [Example 19]
Hemoglobin (Hb)
  EC50: 190 nM

## CNc1ccc(NCCc2cccc(Cl)c2)cc1 [Example 20]
Hemoglobin (Hb)
  EC50: 260 nM

## CNc1ccc(NCCc2ccc(Cl)cc2)cc1 [Example 22]
Hemoglobin (Hb)
  EC50: 520 nM

## CNc1ccc(NCCc2ccc(OC)cc2)cc1 [Example 23]
Hemoglobin (Hb)
  EC50: 620 nM

## CNc1ccc(NCCc2cccc(OC)c2)cc1 [Example 24]
Hemoglobin (Hb)
  EC50: 610 nM

## CC(=O)C(=O)[O-].[Na+] [sodium pyruvate, reference compound]
Cultured astrocytes; 10 mM
  cell viability: lowered cell viability
